5 molecules from US12012413B2, “Methods of treating painful diabetic peripheral neuropathy” (Tenacia Biotechnology (Hong Kong) Co., Limited, priority 2019, dated 2024) can be followed below.

Series [1] in a line: Solid form conversion / physical stability (XRPD). Conditions: for form conversion in suspension: isopropanol, ethyl acetate, or isopropyl acetate. The series is classed as physicochemical. The procedure:
X-ray powder diffraction (XRPD) analysis was carried out on a Stoe Stadi P with Mythen1K detector; Cu-Kα1 radiation; 40 kV and 40 mA tube power; curved Ge monochromator; 0.02° 2θ step size, 12 s step time, 1.5-50.5° 2θ scanning range; detector mode: step scan; 1° 2θ detector step. The sample (about 20 mg) was placed between two acetate foils and clamped in a Stoe transmission sample holder. The sample holder was rotated during the measurement.
X-ray powder diffraction (XRPD) analysis was also carried out on a on a Bruker D8 Advance; Cu-Kα radiation; standard measurement conditions: Bragg-Brentano reflection geometry; 40 kV and 40 mA tube power; LynxEye detector; 0.02° 2θ step size, 37 s step time, 2.5-50.5° 2θ scanning range (about 10 min measurement time. The sample was spread on a silicon single crystal substrate without cavity and flattened to fit to the 0.1 mm depth of the sample holder.
Crystalline, anhydrous Form C material of 3-hydroxy-2-(5-isobutyryl-1-oxo-2,5-diazaspiro[3.4]octan-2-yl)butanamide is not stable in comparison to anhydrous Form A or anhydrous Form B under ambient conditions of temperature and humidity. […] In turn, anhydrous Form A and anhydrous Form B each convert to monohydrate Form MH under the conditions described above.

Series [2] can be described thus: Solubility of anhydrous crystalline forms in water and isopropyl acetate at room temperature. The series is classed as physicochemical.
Series [3] has as its system neuropathic pain associated with diabetic peripheral neuropathy. The series is described as follows: Randomized, double-blind, placebo-controlled multiple-dose study in subjects with neuropathic pain associated with diabetic peripheral neuropathy. The series is classed as in vivo, human. As to the method: A randomized, double-blind, parallel-group, placebo-controlled, multiple-dose study was conducted to assess the efficacy and safety of NYX-2925 in subjects with neuropathic pain associated with diabetic peripheral neuropathy. The study was to evaluate the efficacy of multiple dose levels of NYX-2925 versus placebo in treating the neuropathic pain associated with diabetic peripheral neuropathy. The study was also to assess the effects of multiple dose levels of NYX-2925 versus placebo on pain characteristics, sleep interference, health status, psychological state, and global improvement, and to assess the safety and tolerability of multiple dose levels of NYX-2925. The study was a 6- to 9-week study, including a 1- to 4-week Screening Period, followed by a 4-week double-blind, randomized, placebo-controlled Treatment Period, and a 1-week Follow-Up Period. Subjects with Type 2 diabetes who had been on stable antidiabetic medication for at least 1 month (or had stable glycemic control with diet and exercise alone) and who had been suffering from painful diabetic peripheral neuropathy in the lower extremities for at least 6 months but not more than 10 years were screened for diabetic peripheral neuropathy using the Michigan Neuropathy Screening Instrument and the Masquerading Disorders Tool. […] Subjects were dispensed acetaminophen to be used as rescue medication, and were instructed to take no more than 2 g/daily (one to two 500-mg caplets every 4 to 6 hours as needed) for DPN pain. Beginning immediately after Visit 1, pain intensity and rescue medication use were recorded in the study-issued handheld device daily at bedtime. Subjects entered their average pain intensity, worst pain intensity, pain on walking, and whether rescue medication was used during the past 24 hours. Pain intensity was recorded using an 11-point NRS, with 0 being no pain and 10 being the worst pain imaginable. Every morning upon awakening, subjects completed the Daily Sleep Interference Scale (DSIS) via their study-issued handheld device. Eligible subjects were randomized to receive either NYX-2925 10 mg daily, NYX-2925 50 mg daily, NYX-2925 200 mg daily, or placebo for 4 weeks in a 1:1:1:1 allocation. Investigators and subjects were masked to the randomization allocation. Subjects were dispensed a 2-week supply of investigational product and instructed to take 2 capsules by mouth once daily. Subjects were also re-dispensed acetaminophen to use as rescue medication for DPN pain; instructions not to exceed 2 g/day were reinforced. The appropriate use of rescue medication was assessed by inventory of the returned caplets, as well as by subject interview. Subjects were instructed to continue entering their average pain intensity, worst pain intensity, pain upon walking, and whether they used rescue medication over the past 24 hours into their study-issued handheld devices every night. Every morning upon awakening, subjects completed the DSIS via their study-issued handheld device. Pain diary compliance was reviewed at each study visit by the study staff, and reporting instructions was reinforced. Quantitative sensory testing was done using the Bedside Sensory Testing Kit. The following scales were completed at the Baseline Visit: Brief Pain Inventory for Diabetic Peripheral Neuropathy (BPI-DPN), the Short-Form McGill Pain Questionnaire version 2 (SF-MPQ-2), the Norfolk Quality of Life Questionnaire-Diabetic Neuropathy (QOL-DN), the HADS, the Insomnia Severity Index, and the S-STS. Subjects returned to the clinic at the end of Week 2 for assessment of compliance with study medication, use of rescue medication, and were dispensed the final 2-week supply of investigational product and rescue medication for DPN pain. Pain diary compliance was reviewed by the study staff, and reporting instructions were reinforced. Adverse events were assessed by asking the subjects a non-leading question. Use of concomitant medications was documented. […]

Where [4] appears, read: 10, 50 or 200 mg by mouth once daily for 4 weeks.
[5] abbreviates: advanced DPN (at least 4 years).
Setting [6] is: patients with at least 4 years of DPN duration.

≈ marks a conversion by molar mass, not a printed value. Like-named read-outs stand apart in the source and are kept apart here.

`CC(C)C(=O)N1CCCC12CN(C(C(N)=O)C(C)O)C2=O` (centres unmarked) [3-hydroxy-2-(5-isobutyryl-1-oxo-2,5-diazaspiro[3.4]octan-2-yl)butanamide]: the “physical stability on storage (XRPD)” value in series [1] (about six weeks in a sealed vial at −20° C.) is reported as “did not crystallize”.
Broadly, the solubility is how much of the substance goes into solution per volume. Consider `CC(C)C(=O)N1CCCC12CN(C(C(N)=O)C(C)O)C2=O` (centres unmarked) [Form A, 3-hydroxy-2-(5-isobutyryl-1-oxo-2,5-diazaspiro[3.4]octan-2-yl)butanamide], for which the “solubility in isopropyl acetate” value in series [2] (after 10 minutes, 1 hour, and 6 hours at room temperature) is “about 8 mg/mL”. Also, the solubility in series [2] (isopropyl acetate, 22 °C, organic solvent or mixture, room temperature (about 22° C.), read-out: solubility in isopropyl acetate) was roughly 8 mg/mL (≈ 26.9 mM); in series [2] (water, 22 °C, water, room temperature (about 22° C.), read-out: solubility in water), 54 to 55 mg/mL (≈ 182 to 185 mM). Besides, the “time to convert to the monohydrate Form MH in the solid phase” value in series [1] (ambient temperature, atmosphere of greater than 5% relative humidity) is listed as no more than 3 days.
For the molecule `CC(C)C(=O)N1CCCC12CN(C(C(N)=O)C(C)O)C2=O` (centres unmarked) [Form B, 3-hydroxy-2-(5-isobutyryl-1-oxo-2,5-diazaspiro[3.4]octan-2-yl)butanamide], in series [2] (isopropyl acetate, organic solvent or mixture, after 10 minutes, 1 hour, and 6 hours at room temperature, read-out: solubility in isopropyl acetate), the solubility is roughly 9 mg/mL (≈ 30.3 mM). This molecule registered a solubility at 10 min in series [2] (water, after 10 minutes at room temperature) of roughly 54 mg/mL (≈ 182 mM). Further, the solubility at 1 h in series [2] (water, after 1 hour at room temperature) was roughly 54 mg/mL (≈ 182 mM). Further, the solubility at 6 h in series [2] (water, after 6 hours at room temperature) was roughly 48 mg/mL (≈ 161 mM). Besides, the “conversion to the monohydrate Form MH in the solid state” value in series [1] (ambient temperature, atmosphere of greater than or equal to 50% relative humidity) is “readily converts to the monohydrate Form MH”.
Turning to `CC(C)C(=O)N1CCCC12CN(C(C(N)=O)C(C)O)C2=O` (centres unmarked) [Form C, 3-hydroxy-2-(5-isobutyryl-1-oxo-2,5-diazaspiro[3.4]octan-2-yl)butanamide], in series [1] (ambient conditions of temperature and humidity), the “stability in comparison to anhydrous Form A or anhydrous Form B” value was “not stable”. The “form conversion in suspension” value in series [1] (temperatures greater than or equal to 75° C.) is “converts to anhydrous Form B”; in series [1] (temperatures less than or equal to 50° C.) it was “converts to anhydrous Form A”.
Take `CC(C)C(=O)N1CCC[C@]12CN([C@H](C(N)=O)[C@@H](C)O)C2=O` [NYX-2925, (2S,3R)-3-hydroxy-2-((R)-5-isobutyryl-1-oxo-2,5-diazaspiro[3.4]octan-2-yl)butanamide]: the “change in daily sleep interference score from baseline” value in series [3] (50 mg dose, advanced DPN (at least 4 years), at least at the 2, 3 and 4 week points) is reported as “Statistical significance”. The “change in average pain (NRS) from baseline” value in series [3] (50 mg dose, advanced DPN (at least 4 years), at least at the 3 and 4 week points) is “Statistical significance”. Moreover, in series [3] (50 mg dose, groups ≥1 to ≥5 yrs), the “change from placebo in average daily pain, baseline to week 4, by duration of painful DPN” value is “most significant at ≥4 years”. In addition, the “Week 4 change vs. baseline in average daily pain (on 10-point NRS)” value in series [3] (50 mg once daily, patients with advanced DPN) was found to be 1.93 points. Also, the “Week 4 change vs. placebo in average daily pain (on 10-point NRS)” value in series [3] (50 mg once daily, patients with advanced DPN, p=0.004) came to 1.21 points. The “separation from placebo by dose” value in series [3] (200 mg and 50 mg doses) is “meaningful separation from placebo”. In series [3] (10, 50 and 200 mg doses), the “shape of dose response” value is listed as “inverted-U-shaped dose response”. Besides, in series [3] (setting [4]), the “overall AE profile” value was “comparable to placebo”; the safety and tolerability entry is “safe and well tolerated”; the “serious adverse events (SAEs)” value was “no SAEs”. For the same molecule, in series [3] (setting [5]), the “change in pain on walking (NRS) score from baseline” value is “improvement” and the “change in worst pain from baseline” value was “improvement”. Further, the “most active dose level among the three doses tested (10, 50, 200 mg)” value in series [3] (once daily for 4 weeks) came out at 50 mg. Also, the “separation from placebo on the primary endpoint (change in average daily pain)” value in series [3] (patients not on a concomitant analgesic (n=148), 10, 50 or 200 mg by mouth once daily for 4 weeks) is given as “numeric, but not statistically significant, separation from placebo”. Moreover, the pain alleviation result in series [3] (patients with DPN, after four weeks) is reported as “meaningful pain alleviation”. Also, the “effects on change in average daily pain vs. placebo” value in series [3] (patients with advanced DPN (DPN for ≥4 years, n=127; post-hoc analysis)) is “significant effects”. In series [3] (setting [6]), the “insomnia severity (secondary endpoint)” value was “Improvement”, the “pain interference (secondary endpoint)” value was “Improvement”, the “pain severity (secondary endpoint)” value is on record as “Improvement” and the “patient global impression of change (PGI-C) (secondary endpoint)” value was “Improvement”. For the same molecule, in series [3] (setting [6]), the “quality of life (secondary endpoint)” value is given as “Improvement” and the “total pain score (secondary endpoint)” value is “Improvement”. In addition, the “effect of concomitant analgesic use on treatment benefit” value in series [3] (patients with or without a concomitant analgesic) is recorded as “does not appear to affect treatment benefit”. In series [3] (subjects not using analgesic (n=148), 50 mg dose, at the 3 and 4 week points), the “MMRM change in daily sleep interference” value is “significance”. The “separation from placebo on the primary endpoint (change in average daily pain)” value in series [3] (total patient population (n=300), 10, 50 or 200 mg by mouth once daily for 4 weeks) is “numeric, but not statistically significant, separation from placebo”.
